Experimental data reported in PubChem BioAssay (NCI).
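A five-concentration, 48-hour dose response in 96-well plates underlies each endpoint, interpolated linearly between surrounding concentrations. TGI marks complete inhibition of growth.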

Columns and labels:
Assay in all cases: NCI-60 cell line screen, 48 h
NCI-H460 lung = system: NCI-H460 lung
COLO 205 colon = system: COLO 205 colon
SN12C renal = system: SN12C renal
UO-31 renal = system: UO-31 renal
NCI-H522 lung = system: NCI-H522 lung
SNB-19 CNS = system: SNB-19 CNS
CAKI-1 renal = system: CAKI-1 renal
SNB-75 CNS = system: SNB-75 CNS
OVCAR-5 ovarian = system: OVCAR-5 ovarian
K-562 leukemia = system: K-562 leukemia
UACC-62 melanoma = system: UACC-62 melanoma
MOLT-4 leukemia = system: MOLT-4 leukemia
786-0 renal = system: 786-0 renal
SK-MEL-2 melanoma = system: SK-MEL-2 melanoma
SF-295 CNS = system: SF-295 CNS
SF-268 CNS = system: SF-268 CNS
A498 renal = system: A498 renal

SMILES	TGI (NCI-H460 lung) [µM]	TGI (COLO 205 colon) [µM]	TGI (SN12C renal) [µM]	TGI (UO-31 renal) [µM]	TGI (NCI-H522 lung) [µM]	TGI (SNB-19 CNS) [µM]	TGI (CAKI-1 renal) [µM]	TGI (SNB-75 CNS) [µM]	TGI (OVCAR-5 ovarian) [µM]	TGI (K-562 leukemia) [µM]	TGI (UACC-62 melanoma) [µM]	TGI (MOLT-4 leukemia) [µM]	TGI (786-0 renal) [µM]	TGI (SK-MEL-2 melanoma) [µM]	TGI (SF-295 CNS) [µM]	TGI (SF-268 CNS) [µM]	TGI (A498 renal) [µM]
O=C(NC(Nc1ccc(F)c(Cl)c1)(C(F)(F)F)C(F)(F)F)OCc1ccccc1	> 100	35.1	> 100	54.1	42.1	51	> 100	> 100	> 100	> 100	> 100	89.1	39.5	> 100	91.7	> 100	> 100
CCOC(=O)/C=C(/C(=O)OCC)n1ccc(=O)n(/C(=C/C(=O)OCC)C(=O)OCC)c1=O	34.3	3.79	17.9	28.9	3.53	38.3	3.23	32.6	31.2	10.3	28.3	3.84	5.86	17.6	55.1	43.9	38.8
COc1cccc(C2C3=C(COC3=O)Oc3cc4c(cc32)OCO4)c1 (configuration not stated)	> 34	0.631	> 100	> 100	0.0596	> 100	> 100	> 100	> 90	6.11	> 100	14.1	> 66.4	> 100	0.228	> 62.6	1.27
CC(=O)OC1CC[C@]2(C)C3CC[C@@]4(C)C(CCC4[C@H](C)CCCC(C)C)[C@@H]3CCC2(Br)C1 (some centres not stated)	> 50	20.9	> 50	24.6	29.1	> 50	25	> 50	> 50	35.2	> 50	28	17.5	–	> 50	28.1	18
O=C(c1ccccc1)c1sc2c(=O)c(C(=O)c3ccccc3)c(C(=O)c3ccccc3)sc2c(=O)c1C(=O)c1ccccc1	> 100	> 100	> 100	22.6	38.6	> 100	34.5	68	> 100	> 100	> 100	> 100	> 100	> 100	> 100	> 100	> 100
CN1CCC23c4c5ccc(O)c4OC2c2[nH]c4ccccc4c2CC3(O)C1C5 (configuration not stated)	> 100	33.1	> 100	30.9	> 100	> 100	> 100	> 100	> 100	44.4	53.5	93.6	39.6	39.9	> 100	> 100	38
c1ccc(C[n+]2cccc(-c3cc4ccccc4[nH]3)c2)cc1	> 100	28.8	42.6	> 100	53.9	> 100	> 100	> 100	> 100	77.8	32.1	91.1	> 100	32.8	> 100	> 100	> 100
N#CCCN(CCN(C(=O)Nc1ccccc1)c1ccccc1)C(=O)Nc1ccccc1	> 100	> 100	> 100	> 100	> 100	> 100	> 63.1	> 100	> 100	> 92.1	> 100	> 84.5	> 100	> 100	> 100	> 100	> 100
Cc1ccc(/C=C/C(=O)c2cc(CN(C)C)c(O)c(CN(C)C)c2)cc1	26.1	22.5	44	60	31.7	–	50.3	88.9	> 100	43.9	–	57.2	73.9	–	27.7	> 100	95.5
COc1cc2cc(C(=O)N3CC(CCl)c4ccccc43)[nH]c2c(OC)c1OC (configuration not stated)	> 57.4	> 100	55.2	> 100	> 100	> 100	> 100	> 100	> 100	> 41.3	> 100	> 100	> 100	> 100	> 100	> 100	> 100
CCc1c(Cc2cc(C)cc(C)c2)n2c(nc1=O)SCC2CBr (configuration not stated)	> 50	> 50	> 50	> 50	> 50	> 50	> 50	> 50	> 50	> 50	> 50	> 50	> 50	> 50	–	> 50	> 50
NC(=Nc1ccc(O)cc1)S(=O)O	–	> 100	> 100	> 100	> 100	> 100	> 100	> 100	> 100	> 100	> 100	> 100	> 100	> 100	> 100	> 100	> 100
O=C(c1cccc(C(=O)c2ccc3c4c(cccc24)C(=O)N(c2ccccc2)C3=O)c1)c1ccc2c3c(cccc13)C(=O)N(c1ccccc1)C2=O	> 100	> 100	> 100	> 100	> 100	> 100	> 100	> 100	> 100	> 100	> 100	> 100	> 100	–	> 100	> 100	69.5
Cn1ncnc1CCc1ccccc1	> 100	> 100	> 100	> 100	> 100	–	> 100	> 100	> 100	> 100	> 100	> 100	> 100	> 100	> 100	> 100	> 100
CC1(C)CC(=O)c2c(nc(SSc3nc4c(c(-c5ccccc5)c3C#N)C(=O)CC(C)(C)C4)c(C#N)c2-c2ccccc2)C1	> 10	> 10	> 10	> 10	> 10	> 10	> 10	> 10	> 10	> 10	–	> 10	> 10	> 10	> 10	> 10	> 10
N#CC(Cc1ccccc1Br)N(CCC1=CCCCC1)C(c1ccccc1)c1ccccc1 (configuration not stated)	> 100	> 100	–	> 100	87	> 100	> 100	> 100	> 100	> 100	> 100	> 100	> 100	> 100	> 100	> 100	> 100
CC(=O)Nc1ccc(C(=O)NN2C(=O)C(Cl)C2c2ccccc2O)cc1 (configuration not stated)	> 100	> 100	> 100	> 100	> 100	> 100	> 100	78.9	> 100	> 100	> 100	–	> 100	> 100	> 100	> 100	> 100
Clc1nc2n(c1/C=C/c1cccs1)CCS2	–	> 100	> 100	> 100	> 100	> 100	55.2	> 100	> 100	> 100	> 100	35.2	95.5	> 100	> 100	> 100	57.9
O=c1[nH]n(Cc2ccccn2)c2ccc([N+](=O)[O-])cc12	> 100	> 100	> 100	> 100	> 100	> 100	> 100	> 100	> 100	> 100	> 100	> 100	> 100	> 100	–	> 100	> 100
CCOC(=O)/C=C1\c2ccccc2C(=O)N1CC(=O)OCC	–	> 100	> 100	> 100	> 100	> 100	> 100	> 100	> 100	> 100	> 100	> 100	> 100	> 100	> 100	> 100	> 100
NC(=O)NC(=O)c1cccc(NC(=O)CBr)c1	0.166	< 0.01	0.391	1.68	< 0.01	13.1	0.321	1.69	1.89	1.49	0.908	–	< 0.0333	1.59	2.7	< 0.0275	0.532
COc1ccc([C@@]23OC[C@@H]4[C@@H](OC[C@@H]42)c2cc(OC)c(OC)cc23)cc1OC	> 100	> 100	–	> 100	> 100	> 100	> 100	> 100	> 100	> 100	> 100	> 100	> 100	> 100	> 100	–	> 100
